Common to all, as to assay type: cell-based, Human
One experiment has as its system mitochondrial Akt. As to the kind of experiment: Akt recruitment to mitochondria in hypoxia, subcellular fractions by Western blotting. The conditions noted are these: PC3 cells, 17-AAG 5 μM for 6 hr, NAC 1 mM, MitoTempo 25 μM. On the procedure:
FIG. 1 illustrates mitochondrial phosphoproteome in hypoxia. A: Phosphoproteome of prostate adenocarcinoma PC3 cells in hypoxia versus normoxia. Identified phosphosites met a minimum MaxQuant localization probability of 0.75 and a score difference of 5. Fold changes were calculated from the normalized Heavy/Light SILAC ratio. Six Akt target proteins showing increased phosphorylation in hypoxia are indicated. […] B: Ingenuity pathway analysis of mitochondrial phospho- and global proteome in hypoxia. […] D: PC3 cells in normoxia (N) or hypoxia (H) were fractionated in cytosol (Cyto) or mitochondrial (Mito) extracts and analyzed by Western blotting. pAkt, phosphorylated Akt (Ser473). TCE, total cell extracts. E: PC3 cells in hypoxia (H) were exposed to reoxygenation (O2) for the indicated time intervals and analyzed by Western blotting. N, normoxia. F: The indicated subcellular fractions isolated from normoxic (N) or hypoxic (H) PC3 cells were analyzed with an antibody to the Akt consensus phosphorylation site RxRxxS/T (Akt cons Ab) by Western blotting. Mito Sup, supernatant of mitochondrial extracts after preclearing with Akt cons Ab. G: PC3 cells in normoxia (N) or hypoxia (H) were treated with vehicle (Veh) or Hsp90 small molecule inhibitor 17-AAG (5 μM for 6 hr), and cytosolic (Cyto) or mitochondrial (Mito) extracts were analyzed by Western blotting. H: PC3 cells in normoxia (N) or hypoxia (H) were treated with vehicle (Veh), the antioxidant N-acetyl cysteine (NAC, 1 mM) or mitochondria-specific ROS scavenger, MitoTempo (MT, 25 μM), and subcellular fractions were analyzed by Western blotting. See also FIG. 9.
Human prostate adenocarcinoma PC3 and DU145, glioblastoma (GBM) LN229, and breast adenocarcinoma MCF-7 or MDA-231 cells were obtained from the American Type Culture Collection (ATCC, Manassas, Va.), and maintained in culture according to the supplier's specifications. Hypoxic treatment was carried out using an enclosed chamber (BioSpherix) flushed with a nitrogen and CO2 gas. […]
On the technique in general: In western blotting, separated proteins are transferred to a membrane and probed.

For another experiment, the system named is PC3 cells. The experiment can be described thus: Cell cycle: DNA content by propidium iodide staining and flow cytometry. The conditions noted are these: hypoxia, DCA 10 mM, MK2206 5 μM. An excerpt:
FIG. 13, related to FIG. 5, illustrates additional data regarding mitochondrial Akt signaling supports tumor growth in hypoxia in vivo. A: Human intracranial GBM samples (U251 cells) grown in immunocompromised mice were harvested at the indicated time intervals after stereotactic injection, and the number of mitotic cells was quantified. HPF, high-power microscopy field (n=6-7). Mean±SEM. *, p=0.01. B: Human intracranial GBM samples as in (A) were harvested at day 20 after stereotactic injection of U251 cells in immunocompromised mice, and analyzed for expression of HIF1α, phosphorylated PDK1 (pT346 Ab) or phosphorylated PDHE1α by immunohistochemistry. H&E, hematoxylin and eosin. Yellow lines were used to delineate the tumor mass within mice brain. Scale bar, 100 μm. […] C: Quantification of mitotic cells expressing phosphorylated PDK1 (pT346 Ab) in intracranial GBM harvested from immunocompromised mice at the indicated time intervals (n=5-7). […] D: Intracranial GBM samples as in (A) were analyzed for correlation between HIF1α luciferase activity and the number of PDK1-phosphorylated mitotic cells (pT346 Ab). […], 95% C.I.=0.1-0.9; p=0.02. […] E: PC3 cells in normoxia (N) or hypoxia (H) were treated with vehicle (Veh) or small molecule antagonists of PDK1 (DCA, 10 mM) or Akt (MK2206, 5 μM) and analyzed for DNA content by propidium iodide staining and flow cytometry. […]
(In general: A flow cytometer gives signals particle by particle.)

In the next experiment the test system is cleaved caspase 3. As to the kind of experiment: Cleaved caspase 3 by Western blotting. The following applies: PC3 cells, hypoxia; MK2206 1 μM, PX-866 10 μM. On the procedure: FIG. 6 illustrates mitochondrial Akt regulation of stress signaling in hypoxia. A and B: PC3 cells in normoxia (N) or hypoxia (H) were treated with vehicle (Veh) or MK2206 (1 μM) (A) or transduced with pLKO or PDK1-directed shRNA (B) and analyzed for ROS production by CELLROX Green staining and flow cytometry. Upper panels, representative tracings. Bottom panels, quantification of ROS production under the various conditions tested (n=2). Mean±SD for both datasets. *, p=0.01-0.02; **, p=0.004; ns, not significant. C: The experimental conditions are as in (A) and treated cells were analyzed for cell viability by direct cell counting relative to control (n=3). Mean±SEM. ***, p<0.0001. D: PC3 cells in normoxia (N) or hypoxia (H) were incubated with vehicle (Veh) or small molecule inhibitors of Akt (MK2206, 1 μM) or PI3K (PX-866, 10 μM) and analyzed by Western blotting. E: PC3 cells stably silenced for PDK1 were reconstituted with vector, WT PDK1 or T346A PDK1 mutant and analyzed for cell viability by direct cell counting relative to control (n=3). Mean±SEM. ***, p=0.0002. F and G: PC3 cells in normoxia (N) or hypoxia (H) were transduced with pLKO or PDK1-directed shRNA (F) or control siRNA (Ctrl) or Akt1- or Akt2-directed siRNA (G), and analyzed by Western blotting. […] For all panels, data were analyzed using the two-sided unpaired Student's t test. […]

Each structure is given as a SMILES string.

For `C=CCNC1=C2C[C@@H](C)C[C@H](OC)[C@H](O)[C@@H](C)/C=C(\C)[C@H](OC(N)=O)[C@@H](OC)/C=C\C=C(/C)C(=O)NC(=CC1=O)C2=O` [17-AAG, 17-allylaminogeldanamycin], the “accumulation / recruitment of Akt to mitochondria” value with mitochondrial Akt is recorded as “prevented the accumulation of mitochondrial Akt”. With `O=C([O-])C(Cl)Cl.[Na+]` [DCA, sodium dichloroacetate], in the experiment with PC3 cells, the S-phase progression result is reported as “suppressed S-phase progression” and the “population of tumor cells in G1/sub-G1 phase” value was “increased”. Turning to `CC1(C)CC(NC(=O)C[P+](c2ccccc2)(c2ccccc2)c2ccccc2)CC(C)(C)N1[O]` [MitoTempo], the “accumulation / recruitment of Akt to mitochondria” value in the experiment on mitochondrial Akt was “inhibited Akt recruitment to mitochondria”. The same measure, in the same setting: the same measure for `CC(=O)N[C@@H](CS)C(=O)O` [NAC, N-acetyl cysteine]: “no effect”. Consider `C=CCN(/C=C1/C(=O)O[C@H](COC)[C@@]2(C)C1=C(O)C(=O)C1=C2[C@H](OC(C)=O)C[C@]2(C)C(=O)CC[C@@H]12)CC=C` [PX-866], for which the “cleaved caspase 3 (marker of apoptosis)” value in the experiment on cleaved caspase 3 is “did not result in caspase activation”.

Source of the values: US11208478B2, “Methods of detecting and treating a tumor expressing pT346 PDK1” (The Wistar Institute of Anatomy and Biology, priority 2016, dated 2021).
